Measurements as given in US20070275382A1, “Biomarkers for the Efficacy of Somatostatin Analogue Treatment” (priority 2003, published 2007).
*1 amine or outer side, *2 acyl side, *3 side chain or, on linkers, in order; H or OH if unused. Where a SMILES comes first, the peptide text is derived from it. Side-chain parts run from the residue outwards. [ ]: non-standard residue; d: D form. The star is where a group is joined. Ethylenediamine = C(CN[*:2])N[*:1]; Hyp = O=C(O)[CH]1C[CH](O)CN1; Phg = N[CH](C(=O)O)c1ccccc1; CO = O=C([*:1])[*:2]; Bn = c1ccc(C*)cc1

Legend:
[1] = system: Liver left lateral lobe; assay: Microarray gene expression profiling (HG-U95A), liver; type: in vivo, cynomolgus monkeys
Protocol: Origin of tissue and processing. Male and female cynomolgus monkeys received subcutaneously pasireotide (100 μg/animal/day) or the vehicle for 14 days. On day 15, all animals were sacrificed and tissues for RNA extraction were immediately snap-frozen and kept at −80° C. until processing.
RNA expression profiling was conducted by means of the HG-U95A gene expression probe array (Affymetrix; Santa Clara, Calif. USA), containing more than 12,600 probe sets interrogating primarily full-length human genes and also some control probe sets. The experiment was conducted according to the recommendations of the manufacturer. Briefly, total RNA was obtained by acid guanidinium thiocyanate-phenol-chloroform extraction (Trizol®, Invitrogen Life Technologies, San Diego, Calif. USA) from each frozen tissue section. The total RNA was then purified on an affinity resin (Rneasy®, Qiagen) and quantified. Double stranded cDNA was synthesized with a starting amount of approximately 5 μg full-length total RNA using the Superscript® Choice System (Invitrogen Life Technologies, Carlsbad, Calif. USA) in the presence of a T7-(dT)24 DNA oligonucleotide primer. Following synthesis, the cDNA was purified by phenol/chloroform/isoamyl alcohol extraction and ethanol precipitation. The purified cDNA was then transcribed in vitro using the BioArray® High Yield RNA Transcript Labeling Kit (ENZO, Farmingdale, N.Y. USA) in the presence of biotinylated ribonucleotides form biotin labelled cRNA. The labelled cRNA was then purified on an affinity resin (Rneasy®, Qiagen), quantified and fragmented. An amount of approximately 10 μg labelled cRNA was hybridized for 16 hours at 45° C. to an expression probe array. The array was then washed and stained twice with streptavidin-phycoerythrin (Molecular Probes,) using the GeneChip® Fluidics Workstation 400 (Affymetrix, Santa Clara, Calif. USA). The array was then scanned twice using a confocal laser scanner (GeneArray® Scanner, Agilent, Palo Alto, Calif. USA) resulting in one scanned image. This resulting “.dat-file” was processed using the MAS4 program (Affymetrix) into a “.cel-file”. The “.cel file” was captured and loaded into the Affymetrix GeneChip® Laboratory Information Management System (LIMS). The LIMS database is connected to a UNIX Sun Solaris server through a network filing system that allows for the average intensities for all probes cells (CEL file) to be downloaded into an Oracle database (NPGN). Raw data was converted to expression levels using a “target intensity” of 150. The data were evaluated for quality control and loaded in the GeneSpring® software 4.2.4 (Silicon Genetics, Calif. USA) for analysis.
On the human Affymetrix HGU95Av2 chip, probe sets for individual genes contain 20 oligonucleotide pairs, each composed of a “perfect match” 25-mer and a “mismatch” 25-mer differing from the “perfect” match oligonucleotide at a single base. After probe labelling, hybridization, and laser scanning, the expression level was estimated by averaging the differences in signal intensity measured by oligonucleotide pairs of a given probe (AvgDiff value). The fold changes and directions were calculated for selected genes, from the differences of the AvgDiff values between controls and treated.
To identify genes that were impacted by pasireotide, the dataset was initially filtered to exclude in a first wave of analysis, genes whose values were systematically in the lower expression ranges where the experimental noise is high (at least 80 in a number of experiments corresponding to the smallest number of replicas of any experimental point). In a second round of selection a threshold p-value of 0.05 (based on a t-test) identified differences between treated and control based on a two component error model (Global Error Model) and, whenever possible, with a stepdown correction for multi-hypothesis testing (Benjamini and Hochberg false discovery rate). […]

[2] = molecular target: T1, hSST-4 (Homo sapiens, UniProt P31391); conditions: background statement; cited from earlier work
T1 construct: expressed in transfected cells; host or cells: CHO cells
T1 sequence (P31391 whole entry): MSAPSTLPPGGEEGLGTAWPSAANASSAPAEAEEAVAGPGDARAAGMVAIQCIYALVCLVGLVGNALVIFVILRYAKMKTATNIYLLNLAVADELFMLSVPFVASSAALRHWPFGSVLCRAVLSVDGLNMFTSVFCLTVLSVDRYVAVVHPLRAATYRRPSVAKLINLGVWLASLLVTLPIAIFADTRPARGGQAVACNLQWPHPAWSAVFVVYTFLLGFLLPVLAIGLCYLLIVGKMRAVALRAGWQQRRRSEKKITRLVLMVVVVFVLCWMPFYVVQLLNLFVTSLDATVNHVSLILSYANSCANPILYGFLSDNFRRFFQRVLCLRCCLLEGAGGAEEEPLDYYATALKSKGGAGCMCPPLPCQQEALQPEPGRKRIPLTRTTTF

[3] = ↑ increase, treated vs controls
[4] = ↓ decrease, treated vs controls

Compound: NCCCCC1NC(=O)C(Cc2c[nH]c3ccccc23)NC(=O)C(c2ccccc2)NC(=O)C2CC(OC(=O)NCCN)CN2C(=O)C(Cc2ccccc2)NC(=O)C(Cc2ccc(OCc3ccccc3)cc2)NC1=O (stereo not drawn) [Pasireotide, cyclo[4-(NH2—C2H4—NH—CO—O)Pro-Phg-DTrp-Lys-Tyr(4-Bzl)-Phe]] (cyclo(F[Hyp]([CO-Ethylenediamine])[Phg]WKY(Bn)); configuration not given here)
- GR expression level, AvgDiff (range) ([1]; 0.1 mg/animal/14day): 80 (70 to 360)
- IGF-2 expression level, AvgDiff (range) ([1]; 0.1 mg/animal/14day): 269 (224 to 291)
- IGFBP2 expression level, AvgDiff (range) ([1]; 0.1 mg/animal/14day): 4,476 (3,191 to 5,422)
- Insulin promoter factor 1, homeodomain transcription factor expression level, AvgDiff (range) ([1]; 0.1 mg/animal/14day): 42 (23 to 52)
- 5-hydroxytryptamine (serotonin) receptor 6 RNA expression fold change [1, 3]: receptor 6 ↑ x2.5
- Adenylyl cyclase-associated protein RNA expression fold change [1, 3]: ↑ x1.5
- Arginine vasopressin receptor 2 RNA expression fold change [1, 3]: receptor 2 ↑ x2.5
- B lymphoid tyrosine kinase RNA expression fold change [1, 3]: ↑ x3.5
- Bone-derived GF RNA expression fold change [1, 3]: ↑ x3
- Bruton agamma globulinaemia tyrosine kinase RNA expression fold change [1, 3]: ↑ x1.5
- Butyrate response factor 2 (EGF-response factor 2) RNA expression fold change [1, 3]: factor 2) ↑ x2
- Calcium/calmodulin-dependent protein kinase kinase 2, β RNA expression fold change [1, 3]: ↑ x3
- Calmodulin 2 (phosphorylase kinase, δ) RNA expression fold change [1, 3]: kinase, δ) ↑ x2
- Cdk 5, regulatory subunit 1 RNA expression fold change [1, 3]: subunit 1 ↑ x2.5
- Cdki1A (p21/Cip1) RNA expression fold change [1, 3]: (p21/Cip1) ↑ x6
- Corticosteroid binding globulin precursor RNA expression fold change [1, 3]: precursor ↑ x2
- DAG kinase, α (80 kD) RNA expression fold change [1, 3]: (80 kD) ↑ x3
- DAG kinase, δ (130 kD) RNA expression fold change [1, 3]: ↑ x1.5
- Dopamine receptor D2 RNA expression fold change [1, 3]: receptor D2 ↑ x3.5
- Dopamine receptor D3 RNA expression fold change [1, 3]: receptor D3 ↑ x2
- EGFR (avian erythroblastic leukaemia viral (v-erb-b) oncogene homolog) RNA expression fold change [1, 3]: homolog) ↑ x2
- FGFR2 (bacteria-expressed kinase, keratinocyte growth factor receptor, craniofacial dysplasia) RNA expression fold change [1, 3]: dysplasia) ↑ x2
- Fas-activated serine/threonine kinase RNA expression fold change [1, 3]: kinase ↑ x1.5
- GABA (A) receptor, γ2 precursor RNA expression fold change [1, 3]: precursor ↑ x4
- GABA(A) receptor-associated protein RNA expression fold change [1, 3]: ↑ x1.5
- GCSF RNA expression fold change [1, 3]: GCSF ↑ x3.5
- Glucacon receptor RNA expression fold change [1, 3]: receptor ↑ x5
- Glutamate receptor, metabotropic 4 RNA expression fold change [1, 3]: ↑ x1.5
- Growth differentiation factor 1 RNA expression fold change [1, 3]: factor 1 ↑ x3
- IFN regulatory factor 5 RNA expression fold change [1, 3]: factor 5 ↑ x2.5
- IFN-induced leucine zipper protein RNA expression fold change [1, 3]: ↑ x1.5
- IFN-inducible RNA-dependent protein kinase RNA expression fold change [1, 3]: kinase ↑ x4
- IFNγ responsive transcript RNA expression fold change [1, 3]: transcript ↑ x1.5
- IGFBP2 RNA expression fold change [1, 3]: IGFBP2 ↑ x2
- IL2 R, γ chain, precursor RNA expression fold change [1, 3]: precursor ↑ x2.5
- IP 5-phosphatase RNA expression fold change [1, 3]: phosphatase ↑ x2
- Natriuretic peptide receptor A/guanylate cyclase A (atrionatriuretic peptide receptor A) RNA expression fold change [1, 3]: A) ↑ x6
- Nck, Ash and PLC γ binding protein NAP4 RNA expression fold change [1, 3]: ↑ x3.5
- PDGF, α polypeptide RNA expression fold change [1, 3]: polypeptide ↑ x1.5
- PDGFR, α polypeptide RNA expression fold change [1, 3]: polypeptide ↑ x2
- PI transfer protein RNA expression fold change [1, 3]: protein ↑ x3.5
- PKC substrate 80K-H RNA expression fold change [1, 3]: 80K-H ↑ x1.5
- PLA2, group IIA (platelets, synovial fluid) RNA expression fold change [1, 3]: fluid) ↑ x5.5
- PLC, γ 1 (formerly subtype 148) RNA expression fold change [1, 3]: 148) ↑ x2
- Rb binding protein RNA expression fold change [1, 3]: protein ↑ x2.5
- Rb-like 2 (p130) RNA expression fold change [1, 3]: (p130)↑ x3
- Receptor (calcitonin) activity modifying protein 1 precursor RNA expression fold change [1, 3]: 1 precursor ↑ x1.5
- Solute carrier family 9 (sodium/hydrogen exchanger), isoform 3 regulatory factor 1 RNA expression fold change [1, 3]: ↑ x11.5
- Solute carrier family 11 (Na+/phosphate symporters), member 1 RNA expression fold change [1, 3]: member 1 ↑ x2.5
- TGFβ activated kinase-binding protein 1 RNA expression fold change [1, 3]: protein 1 ↑ x2.5
- THR interacting protein 15 RNA expression fold change [1, 3]: protein 15 ↑ x1.5
- THR sulfo transferase RNA expression fold change [1, 3]: transferase ↑ x2.5
- TNF (ligand) superfamily, member 10 RNA expression fold change [1, 3]: 10 ↑ x1.5
- δ sleep inducing peptide, immunoreactor RNA expression fold change [1, 3]: ↑ x2.5
- 1-PI-4-phosphate 5-kinase isoform C RNA expression fold change [1, 4]: ↓ x2
- ATPase, H+/K+ exchanging, beta polypeptide RNA expression fold change [1, 4]: polypeptide ↓ x2
- BCL2-like 1 RNA expression fold change [1, 4]: ↓ x3.5
- Ca++ channel, voltage-dependent, P/Q type, alpha 1A subunit RNA expression fold change [1, 4]: subunit ↓ x2.5
- Cdk like-2 RNA expression fold change [1, 4]: Cdk like-2 ↓ x2
- Cdki 2D (p19, inhibits CDK4) RNA expression fold change [1, 4]: ↓ x2.5
- Death-associated protein 6 RNA expression fold change [1, 4]: ↓ x2.5
- EGF (β-urogastrone) RNA expression fold change [1, 4]: ↓ x2.5
- EGF-like repeats and discoidin I-like domains 3 RNA expression fold change [1, 4]: domains 3 ↓ x1.5
- Fms-related tyrosine kinase 1(VEGF/vascular permeability factor receptor) RNA expression fold change [1, 4]: receptor) ↓ x1.5
- GFR-bound protein 2 RNA expression fold change [1, 4]: protein 2 ↓ x2.5
- Glycosylphosphatidylinositol specific phospholipase D1 RNA expression fold change [1, 4]: ↓ x1.5
- IFN-related developmental regulator 2 RNA expression fold change [1, 4]: regulator 2 ↓ x1.5
- IFN-stimulated protein, 15 kDa RNA expression fold change [1, 4]: protein, 15 kDa ↓ x2
- IGF-2 RNA expression fold change [1, 4]: IGF-2 ↓ x2.5
- Insulin promoter factor 1, homeodomain transcription factor RNA expression fold change [1, 4]: ↓ x1.5
- PI transfer protein, β RNA expression fold change [1, 4]: protein, β ↓ x1.5
- PKC, ι RNA expression fold change [1, 4]: PKC, ι ↓ x1.5
- Rb 1 (including osteosarcoma) RNA expression fold change [1, 4]: ↓ x2
- TGF, β1 RNA expression fold change [1, 4]: TGF, β1 ↓ x1.5
- TGFβR III (betaglycan, 300 kδ) RNA expression fold change [1, 4]: 300 kδ) ↓ x2
- TNF-α converting enzyme RNA expression fold change [1, 4]: enzyme ↓ x2
- binding to SSTR4 [2]: binds to all somatostatin receptors except SSTR4
